# Data published in patent US11179452B2, “Antigen specific multi epitope vaccines” (priority 2006, dated 2021).
# No end group written: not given here.
# Assays:
# Assay type in all cases: cell-based, human
# [1] = tested on: PBL; assay: ELISA of cytokine secretion by PBL stimulated once with peptide-pulsed DC
# Procedure: (§1) Human PBMC were separated from buffy coat samples of naive donors using Ficoll UNI-SEPmaxi tube. Separated cells were suspended in RPMI medium supplemented with 10% FCS, L-Glutamine, Sodium Pyruvate, MEM-EAGLE non-essential amino-acids, HEPES and Gentamycin Sulphate (Bet-Haemek Industries, IL) and cultivated for 4 h at 37° C. in a culture dish (Corning 150 mm×25 mm). Adherent cells were collected and cultured for 7 days in serum free DCCM-1 medium supplemented with L-Glutamine, huIL-4 (1000 IU/ml) (Cytolab IL) and GM-CSF-80 ug/ml (Cytolab IL). On day seven floating cells were collected and loaded with 50 ug/ml of examined peptide for 18 h at 37° C.
# (§2) Cytokine release was studied during the culture of stimulated T-cells. The evaluated samples were collected from the T cell culture medium on day 2, 3, and 5 and stored until use at −20° C.
# (§3) […] of the selected capture antibody (e.g. anti-Hu IFN-Gamma, or anti-Hu TNF-alfa or anti IL-2) were added to each well at the final concentration of 5 μg/ml in PBS. Plates were incubated for 2 h at R.T. or over night at 4° C. Next, […] of blocking solution were added for an incubation of 2 h at R.T. […] of evaluated samples were added in duplicate into 2 wells for 2 hours at RT. After 2 h of incubation at R.T plates were washed λ4 times in washing solution. In the next step, a Biotin-conjugated detection antibody (relevant to coated antibody) was added at a final concentration of 10 μg/ml in total volume of 100 μl for 1 h at R.T. Finally, 100 μl/well working dilution (1:10000 in Blocker solution) of Streptavidin-HRP were added to each well and incubated for 1 h at R.T.
# (§4) Plates were washed λ6 times with PBS-Tween (0.4%) and 100 μl/well of TMB/E Solution (CHEMICON, Catalog #ES001) was added. The plates were then exposed until blue color appeared in the wells of the positive control and no color was detected in the blank wells. To stop the color reaction, 50 μl/well of 10% of Sulfuric acid was added. The plates were counted in ELISA-Reader using a 450 nm filter.
# [2] = tested on: PBL; assay: Proliferation of PBL, DC indirect presentation (peptide-pulsed autologous DC); conditions: for IS (as indicated in Table 12): two donors; for IS (SI of the peptides as indicated in Table 7): one out of five experiments; for IS (SI of the peptides as indicated in Table 7) / Optimal dose via DC: six donors; for Optimal dose via DC: optimal dose required for PBL activation; for Optimal dose via DC / Peak of Proliferation (Hours) via DC: average of 5 experiments; for Peak of Proliferation (Hours) via DC: visual inspection by light microscopy daily during 5 days
# Procedure: as §1
# (§5) Proliferation analysis was conducted in three different methods. In all three methods, plates were cultured for 3-5 days under visual control and then 0.5 […]Cu/well of 3[H] (Amersham) was added for additional culture of to 18 h at 37° C. In the last step, plates were harvested and the radioactive counts were measured in a □ counter. • 1. DC indirect presentation: In the first method, 100 µl of 2×10^6 thawed PBL were placed in U-shape Bottom 96 well plate (Nunc) with RPMI medium supplemented with 5% H AB serum, L-Glutamine, Sodium Pyruvate, MEM-EAGLE non-essential amino-acids, HEPES and Gentamycin. At the next stage 100 µl of 25×10^4 peptide-pulsed DC were added to each three wells of PBL and underwent proliferation analysis as described above. • 2. PBL direct presentation: In the 2nd method, 100 µl of 2×10^6 PBL were placed in Flat Bottom 96 well plates (Corning) and stimulated with different concentrations (0.05 ug/ml-2 ug/ml) of peptides. In the next step the cells underwent proliferation analysis as described above. • 3. PBMC direct presentation: In third method PNMC were used under similar conditions as described for the second method.
# In the first set of experiments, the 21mer ImMucin, its different 9mer epitopes and other control epitopes (Table 3) were evaluated in proliferation assays with the aim of finding their optimal mode of presentation, stimulated dose as well as their peak of activity (time wise).
# To evaluate the most efficient method for priming of PBLs with the different peptides, the following methods were compared:
# a. In-direct presentation of the peptide via Autologues-pulsed DC
# (§6) Five experiments were performed according to the protocol described in material and methods with buffy-coat enriched PBLs obtained from six different naive donors (obtained from the Israeli blood bank).
# [3] = tested on: PBL; assay: Proliferation of PBL, direct presentation of peptide without APC; conditions: for Optimal dose Direct no APC: optimal dose required for PBL activation, six donors; for Optimal dose Direct no APC / Peak of Proliferation (Hours) Direct no APC: average of 5 experiments; for Peak of Proliferation (Hours) Direct no APC: visual inspection daily during 5 days
# Procedure: In all three methods, plates were cultured for 3-5 days under visual control and then 0.5 □Cu/well of 3[H] (Amersham) was added for additional culture of to 18 h at 37° C. […] DC indirect presentation: In the first method, 100 µl of 2×10^6 thawed PBL were placed in U-shape Bottom 96 well plate (Nunc) with RPMI medium supplemented with 5% H AB serum, L-Glutamine, Sodium Pyruvate, MEM-EAGLE non-essential amino-acids, HEPES and Gentamycin. At the next stage 100 µl of 25×10^4 peptide-pulsed DC were added to each three wells of PBL and underwent proliferation analysis as described above. • 2. PBL direct presentation: In the 2nd method, 100 µl of 2×10^6 PBL were placed in Flat Bottom 96 well plates (Corning) and stimulated with different concentrations (0.05 ug/ml-2 ug/ml) of peptides. In the next step the cells underwent proliferation analysis as described above. • 3. PBMC direct presentation: In third method PNMC were used under similar conditions as described for the second method.
# Direct presentation of peptides to PBL without any APC
# [4] = tested on: T-Cell specific subpopulation (Clones); assay: ELISA of cytokine secretion by the T-cell specific subpopulation (clones) stimulated with peptides; conditions: two experiments, four donors
# Source text: (§7) Thawed PBLs underwent 1st stimulation with ImMucin pulsed Autologues DC at a ratio of 20:1 and cultured for 7 days in dedicated T cell Medium. T cell medium contained RPMI medium supplemented with 10% FCS, L-Glutamine, Sodium Pyruvate, MEM-EAGLE non-essential amino-acids, HEPES and Gentamycin Sulphate (Bet-Haemek Industries, IL) as well as with 50 IU/ml of recombinant IL-7 (Cytolab IL). For the second stimulation, PBL were transferred to adherent autologues ImMucin-pulsed PBMC and cultured for additional 5 days in T cell Medium. At the end of the 5 days, medium was partial replaced with fresh medium containing 1 ug/ml of ImMucin and 50 IU/ml IL-2 for a third stimulation of 48 h at 37° C. Following the last stimulation ImMucin T cell line was checked for immune activation properties.
# as §2, §3, §4
# (§8) For that purpose, an enriched ImMucin-specific T cell subpopulation was produced via repeated stimulation with ImMucin. The specificity of the subpopulation for ImMucin, as well as to the other VXL epitopes, was examined using proliferation assays, cytokine release assays, FACS analysis in which the percentage and type of cells enriched during the enrichment process was analyzed, and using a CTL assay against selected target cells.
# (§9) For producing the specific T cell subpopulation PBL were stimulated three times for 7, 5 and 2 days with ImMucin presented via DC and PBMC. Following the 3rd stimulation the cells were evaluated against the different VXL epitopes.
# [5] = tested on: PBMC; assay: Proliferation, direct presentation of peptide via PBMC (monocytes); conditions: for PBL Index of stimulation (SI) via PBMC: naive donors, representative of 5 experiments; for Optimal dose via PBMC: optimal dose required for PBL activation, six donors; for Optimal dose via PBMC / Peak of Proliferation (Hours) via PBMC: average of 5 experiments; for Peak of Proliferation (Hours) via PBMC: visual inspection daily during 5 days
# Procedure: as §5
# b. Direct presentation of the peptides via PBMC i.e. monocytes
# as §6
# [6] = tested on: ImMucin specific T-cell subpopulation; assay: Proliferation of the ImMucin-specific T-cell subpopulation after three stimulations; conditions: one out of two experiments, four donors
# Source text: as §7, §5, §8, §9
# [7] = tested on: lymphocytes from naive donors; assay: Proliferation assay, kinetics of lymphocyte activation as summarised in text (presentation mode not stated); conditions: summary of five experiments
# Procedure: as §5
# A different parameter for assessing the properties of ImMucin and the other VXL-peptide epitopes is by analyzing the time until a maximal peak of activity occurs and the optimal dose for maximal stimulation. Maximal peak of PBL activation is determined when <50% of the PBLs appear in clumps. In these experiments, the kinetic (time) in the proliferation of lymphocytes from the six naive donors stimulated at a fix dose of 0.05-1 ug/ml by ImMucin and other VXL-Peptides, was observed.
# [8] = peptide pulsed DC ratio 16:1, one out of two experiments, two donors (Table 12)
# [9] = average of two healthy donors (Table 11)
# [10] = peptide DC ratio 16:1, one out of five experiments, six donors
# [11] = naive donors, CPM sample / CPM control, representative of 5 experiments
# [12] = naive donors, representative of 5 experiments
Molecule,"PBL Index of stimulation (SI) Direct no APC [3, 9]","IFN-gamma [1, 10] [ng/mL]","IL-2 [1, 10] [ng/mL]",IL-2 % of clones [4] [%],IL-2 Range [4] [ng/mL],INF-gamma % of clones [4] [%],INF-gamma Range [4] [ng/mL],TNF-Alfa % of clones [4] [%],TNF-Alfa Range [4] [ng/mL],PBL Index of stimulation (SI) via PBMC [5],Optimal dose via PBMC [5] [µg/mL],Peak of Proliferation (Hours) via PBMC [5],"PBL Index of stimulation (SI) via DC [2, 11]",Optimal dose via DC [2],Peak of Proliferation (Hours) via DC [2],IS (Average) [6],IS (Range) [6],"PBL Index of stimulation (SI) Direct no APC [3, 12]",Optimal dose Direct no APC [3],Peak of Proliferation (Hours) Direct no APC [3],further results
"MAARAVFLAL SAQLLQA (MAARAVFLALSAQLLQA; listed as Homo sapiens) [VXL-102, signal peptide vaccine derived from melanoma associated TAA BAGE]",0,,,,,,,,,,,,,,,,,,,,"TNF-Alfa [1, 8]: 15.5 ng/mL; IS (as indicated in Table 12) [2]: 1.9"
"CSCC[C@H](N)C(=O)N[C@@H](CC(C)C)C(=O)N[C@@H](CC(C)C)C(=O)N[C@@H](C)C(=O)N[C@H](C(=O)N[C@@H](CC(C)C)C(=O)N[C@@H](Cc1ccc(O)cc1)C(=O)N[C@@H](CS)C(=O)N[C@@H](CC(C)C)C(=O)O)C(C)C [VXL-11, MLLAVLYCL, reference compound]",,0,0,0,0,33,2.2 to 4.7,0,0,1.25,0.05 to 1,96 h,1.65,12.5-25 × × 10e6/well,96 h,1.14,1-1.28,0,No Influence,No proliferation,IS (SI of the peptides as indicated in Table 7) [2]: 1.65
"SPFFLLLLL [VXL-5, SPFFLLLLL]",,0,,0,0,33,2.75 to 5.5,50,3.84 to 9.2,1.8,,48-72 h^,3.73,12.5-25 × × 10e6/well,48-72 h^,3.575,2.75-4.4,0,No Influence,No proliferation,"TNF-Alfa [1, 10]: 14.8 ng/mL; TNF-Alfa ([1]; peptide DC ratio 16:1, one out of five experiments, six donors, listed as VXL5): highest cytokine release; IS (SI of the peptides as indicated in Table 7) [2]: 3.74"
"ALCRWGLLL [VXL-8, reference compound]",,,,,,,,,,1.5,0.05 to 1,120 h,1.75,12.5-25 × × 10e6/well,120 h,,,0,No Influence,No proliferation,peak of proliferation / maximum stimulation [7]: 120 h
"STPPVHNV [VXL-6, STPPVHNV, reference compound]",0,0,0,0,0,8.3,3.25,50,7.56 to 11.4,1.53,0.05 to 1,120 h,1.76,12.5-25 × × 10e6/well,120 h,1.125,1-1.25,0,No Influence,No proliferation,"TNF-Alfa [1, 10]: 0 ng/mL; PBL Index of stimulation (SI) via DC [2, 9]: 1.44"
"TQSPFFLLL [VXL-4, TQSPFFLLL]",,0,0,33,3.8 to 8.7,33,2.6 to 8.4,58,3.1 to 9.8,1.45,,72-96 h^,3.74,12.5-25 × × 10e6/well,72-96 h^,2.665,2.4-2.93,0,No Influence,No proliferation,"TNF-Alfa [1, 10]: 17.1 ng/mL; TNF-Alfa ([1]; peptide DC ratio 16:1, one out of five experiments, six donors, listed as VXL4): highest cytokine release; IL-2 Range ng/ml ([4]; listed as VXL4): high; INF-gamma Range ng/ml ([4]; listed as VXL4): high; IS (SI of the peptides as indicated in Table 7) [2]: 3.4"
"MWATQGLAVALALSVLPGSRA (MWATQGLAVALALSVLPGSRA; listed as Homo sapiens) [VXL-101, signal peptide vaccine derived from ARMET]",0,,,,,,,,,,,,,,,,,,,,"IL-2 [1, 8]: 0 ng/mL; TNF-Alfa [1, 8]: 10.5 ng/mL; PBL Index of stimulation (SI) via DC [2, 9]: 2.8; PBL Index of stimulation (SI) via DC ([2]; average of two healthy donors (Table 11), listed as Armet): highest SI; IS (as indicated in Table 12) [2]: 2.8"
"PADREAGVAA WTLKAAA (PADREAGVAAWTLKAAA) [VXL-14, reference compound]",0,,,,,,,,,,,,,,,,,,,,"PBL Index of stimulation (SI) via DC [2, 9]: 2.94"
